Values of other authors in patent publication US11123318B2 (APR APPLIED PHARMA RESEARCH S.A., priority 2017, dated 2021).

Tests used:
[1] = not given; remark: listed apart in the source

## O=C(O)Cc1ccccc1Nc1c(Cl)cccc1Cl [Diclofenac, 2-(2-[2,6-diclorofenilammino]phenyl) ethanoic acid]
other
  solubility in water: low solubility
[1]; after oral administration
  absorption through the gastrointestinal tract: completely absorbed
  time to peak plasma level: ≤ 1 h
[1]; in vivo
  administered dose eliminated as the metabolite by the renal route: About 60%
  administered dose excreted in the bile and in the faeces: About 30%
  excreted as unchanged substance by the renal route: less than 1%
